Assay results taken from patent US9181255B2, “Fused heteroaromatic pyrrolidinones as SYK inhibitors” (Takeda Pharmaceutical Company Limited, priority 2009, dated 2015).

What follows are compounds tested against SYK (Homo sapiens, UniProt P43405) (assay: SYK inhibition assay: SYK-mediated phosphorylation of FAM-labeled substrate (Caliper microfluidic)). Settings: read-out: SYK Inhibition (pIC50) (converted).
Assay type: biochemical

`N[C@H]1COCC[C@H]1Nc1nc(-c2cnn(C(F)F)c2)c2c(c1F)CNC2=O` [Example 125, 6-((3R,4R)-3-Aminotetrahydro-2H-pyran-4-ylamino)-4-(1-(difluoromethyl)-1H-pyrazol-4-yl)-7-fluoro-1H-pyrrolo[3,4-c]pyridin-3(2H)-one] was tested. Which IC50 did it give?
Its IC50 is 10 nM.

Which IC50 does the source give for `CC(C)C[C@@H](Nc1nc(-c2cccs2)c2c(c1F)CNC2=O)C(N)=O` [Example 126, (R)-2-(7-Fluoro-3-oxo-4-(thiophen-2-yl)-2,3-dihydro-1H-pyrrolo[3,4-c]pyridin-6-ylamino)-4-methylpentanamide] here?
The IC50 was 7.94 nM.

How did the IC50 turn out when `N[C@H]1COCC[C@H]1Nc1nc(-c2cccs2)c2c(c1F)CNC2=O` [Example 127, 6-((3R,4R)-3-Aminotetrahydro-2H-pyran-4-ylamino)-7-fluoro-4-(thiophen-2-yl)-1H-pyrrolo[3,4-c]pyridin-3(2H)-one] was run?
The IC50 was 6.31 nM.

`N[C@H]1COCC[C@H]1Nc1nc(-c2cncs2)c2c(c1F)CNC2=O` [Example 128, 6-((3R,4R)-3-Aminotetrahydro-2H-pyran-4-ylamino)-7-fluoro-4-(thiazol-5-yl)-1H-pyrrolo[3,4-c]pyridin-3(2H)-one] was tested. Which IC50 did it give?
The IC50 was 20 nM.

With `N[C@H]1CCCC[C@H]1Nc1nc(-c2cccs2)c2c(c1F)CNC2=O` [Example 129, 6-((1R,2S)-2-Aminocyclohexylamino)-7-fluoro-4-(thiophen-2-yl)-1H-pyrrolo[3,4-c]pyridin-3(2H)-one] as the compound, how does the IC50 read?
The IC50 was 3.98 nM.

Which IC50 does the source give for `N[C@H]1COCC[C@H]1Nc1nc(-n2cnc(C(F)(F)F)c2)c2c(c1F)CNC2=O` [Example 130, 6-((3R,4R)-3-Aminotetrahydro-2H-pyran-4-ylamino)-7-fluoro-4-(4-(trifluoromethyl)-1H-imidazol-1-yl)-1H-pyrrolo[3,4-c]pyridin-3(2H)-one] here?
Its IC50 is 10000 nM.

Which IC50 does the source give for `Cc1cn(-c2nc(N[C@@H]3CCCC[C@@H]3N)c(F)c3c2C(=O)NC3)cn1` [Example 131, 6-((1R,2S)-2-Aminocyclohexylamino)-7-fluoro-4-(4-methyl-1H-imidazol-1-yl)-1H-pyrrolo[3,4-c]pyridin-3(2H)-one] here?
Its IC50 is > 20000 nM.

Which IC50 does the source give for `Cc1cc(-c2nc(N[C@@H]3CCOC[C@@H]3N)c(F)c3c2C(=O)NC3)sn1` [Example 132, 6-((3R,4R)-3-Aminotetrahydro-2H-pyran-4-ylamino)-7-fluoro-4-(3-methylisothiazol-5-yl)-1H-pyrrolo[3,4-c]pyridin-3(2H)-one] here?
The IC50 was 3.98 nM.

With `Cc1ncc(-c2nc(N[C@@H]3CCOC[C@@H]3N)c(F)c3c2C(=O)NC3)s1` [Example 133, 6-((3R,4R)-3-Aminotetrahydro-2H-pyran-4-ylamino)-7-fluoro-4-(2-methylthiazol-5-yl)-1H-pyrrolo[3,4-c]pyridin-3(2H)-one] as the compound, how does the IC50 read?
The IC50 was 25.1 nM.

`N[C@H]1COCC[C@H]1Nc1nc(-c2cnn(C3CC3)c2)c2c(c1F)CNC2=O` [Example 136, 6-((3R,4R)-3-Aminotetrahydro-2H-pyran-4-ylamino)-4-(1-cyclopropyl-1H-pyrazol-4-yl)-7-fluoro-1H-pyrrolo[3,4-c]pyridin-3(2H)-one] was tested. Which IC50 did it give?
The IC50 was 31.6 nM.
